Experimental data: patent US12180187B2, “1-phenyl-5-azinylpyrazolyl-3-oxyalkyl acids and their use for controlling unwanted plant growth” (BAYER AKTIENGESELLSCHAFT, priority 2019, dated 2024)

Legend:
ECHCG = assay: Pre-emergence action against ECHCG, 1280 g/ha; assay type: in vivo, Echinochloa crus-galli; details: visual scoring after about 3 weeks vs untreated controls, 100% = plants have died, 0% = like control plants
Outline: (§1)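 Greenhouse pre-emergence test on sown seeds in sandy loam; soil-surface spray of formulated compound with 0.5% additive at 600 L/ha water. Scored visually, % vs untreated, after about 3 weeks.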

POAAN [1] = assay: Pre-emergence action against POAAN, 1280 g/ha; assay type: in vivo, Poa annua; details: visual scoring after about 3 weeks vs untreated controls, 100% = plants have died, 0% = like control plants
Outline: as §1

SETVI [2] = assay: Pre-emergence action against SETVI, 1280 g/ha; assay type: in vivo, Setaria viridis; details: visual scoring after about 3 weeks vs untreated controls, 100% = plants have died, 0% = like control plants
Outline: as §1

AMARE [3] = assay: Pre-emergence action against AMARE, 1280 g/ha; assay type: in vivo, Amaranthus retroflexus; details: scored visually after about 3 weeks vs untreated controls (100% = plants have died)
Outline: as §1

MATIN = assay: Pre-emergence action against MATIN, 1280 g/ha; assay type: in vivo, Tripleurospermum inodorum (Matricaria inodora); details: scored visually after about 3 weeks vs untreated controls (100% = plants have died)
Outline: as §1

STEME = assay: Pre-emergence action against STEME, 1280 g/ha; assay type: in vivo, Stellaria media; details: scored visually after about 3 weeks vs untreated controls (100% = plants have died)
Outline: as §1

VERPE = assay: Pre-emergence action against VERPE, 1280 g/ha; assay type: in vivo, Veronica persica; details: scored visually after about 3 weeks vs untreated controls (100% = plants have died)
Outline: as §1

ALOMY = assay: Pre-emergence action at 320 g/ha against ALOMY; assay type: in vivo, Alopecurus myosuroides; details: scored visually after about 3 weeks vs untreated controls (100% = plants have died)
Outline: (§2)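 Application: aqueous WP or EC with 0.5% additive on soil covering seeds, 600 l/ha. Read-out: visual percent damage after ~3 weeks in greenhouse, untreated pots as reference.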

AVEFA = assay: Pre-emergence action at 320 g/ha against AVEFA; assay type: in vivo; details: visual scoring after about 3 weeks vs untreated controls
Outline: as §2

DIGSA = assay: Pre-emergence action at 320 g/ha against DIGSA; assay type: in vivo, Digitaria sanguinalis; details: visual scoring after about 3 weeks vs untreated controls
Outline: as §2

SETVI [4] = assay: Pre-emergence action at 320 g/ha against SETVI; assay type: in vivo, Setaria viridis; details: visual scoring after about 3 weeks vs untreated controls
Outline: as §2

AMARE [5] = assay: Pre-emergence action at 320 g/ha against AMARE; assay type: in vivo, Amaranthus retroflexus; details: visual scoring after about 3 weeks vs untreated controls
Outline: as §2

POLCO = assay: Pre-emergence action at 320 g/ha against POLCO; assay type: in vivo, Fallopia convolvulus (Polygonum convolvulus); details: visual scoring after about 3 weeks vs untreated controls
Outline: as §2

LOLRI = assay: Post-emergence action against LOLRI, 1.28 kg/ha; assay type: in vivo, Lolium rigidum; details: dosage 1280 g/ha, visual rating about 3 weeks after treatment vs untreated controls
Outline: (§3)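 Spray at one-leaf stage with WP/EC + 0.5% additive, 600 L water/ha. Greenhouse, optimum conditions, ~3 wk. Visual % control vs untreated; 0 = no effect, 100 = dead.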

POAAN [6] = assay: Post-emergence action against POAAN, 1.28 kg/ha; assay type: in vivo, Poa annua; details: dosage 1280 g/ha, visual rating about 3 weeks after treatment vs untreated controls
Outline: as §3

SETVI [7] = assay: Post-emergence action against SETVI, 1.28 kg/ha; assay type: in vivo, Setaria viridis; details: dosage 1280 g/ha, visual rating about 3 weeks after treatment vs untreated controls
Outline: as §3

| Compound | Pre-emergence action against ECHCG (ECHCG) [%] | Pre-emergence action against POAAN (POAAN [1]) [%] | Pre-emergence action against SETVI (SETVI [2]) [%] | Pre-emergence action against AMARE (AMARE [3]) [%] | Pre-emergence action against MATIN (MATIN) [%] | Pre-emergence action against STEME (STEME) [%] | Pre-emergence action against VERPE (VERPE) [%] | Pre-emergence action at 320 g/ha against ALOMY in % (ALOMY) [%] | Pre-emergence action against AVEFA in % (AVEFA) [%] | Pre-emergence action against DIGSA in % (DIGSA) [%] | Pre-emergence action against SETVI in % (SETVI [4]) [%] | Pre-emergence action against AMARE in % (AMARE [5]) [%] | Pre-emergence action against POLCO in % (POLCO) [%] | Post-emergence action against LOLRI (LOLRI) [%] | Post-emergence action against POAAN (POAAN [6]) [%] | Post-emergence action against SETVI (SETVI [7]) [%] |
| --- | --- | --- | --- | --- | --- | --- | --- | --- | --- | --- | --- | --- | --- | --- | --- | --- |
| O=C(O)COc1nn(-c2ccccc2F)c(-c2ccc(F)nc2)c1I [VII-037] | 100 | 100 | 100 | 100 | 100 | 100 | 100 | 100 | 90 | 100 | 100 | 100 | 100 | 90 | 100 | 90 |
| CCOC(=O)C(C)Oc1nn(-c2ccccc2F)c(-c2ccc(F)nc2)c1C(F)(F)F (stereo not drawn) [VII-066] | 100 | 100 | 100 | 100 | 90 | 100 | 100 | 100 | 90 | 100 | 80 | 100 | 90 | 100 | 100 | 90 |
| O=C(COc1nn(-c2ccccc2F)c(-c2ccc(F)nc2)c1Br)OCC1CCOC1 (stereo not drawn) [VII-091] | 100 | 100 | 100 | 100 | 100 | 100 | 100 | 100 | 90 | 100 | 100 | 100 | 100 | 100 | 100 | 90 |
| O=C(COc1nn(-c2ccccc2F)c(-c2ccc(F)nc2)c1Br)OCC1OCCO1 [VII-103] | 100 | 100 | 100 | 100 | 100 | 100 | 100 | 100 | 90 | 100 | 100 | 100 | 100 | 100 | 100 | 90 |
| COC(=O)CCOC(=O)COc1nn(-c2ccccc2F)c(-c2ccc(F)nc2)c1Br [VII-111] | 100 | 100 | 100 | 100 | 100 | 100 | 100 | 100 | 90 | 100 | 100 | 100 | 90 | 90 | 100 | 100 |
| COC(=O)[C@@H](C)Oc1nn(-c2cc(F)ccc2F)c(-c2cncc(F)c2)c1C#N [VII-147] | 100 | 100 | 100 | 100 | 100 | 100 | 100 | 100 | 100 | 100 | 100 | 100 | 100 | 100 | 100 | 90 |
